Activity calls are given as the source filed them. The calls are words filed in the database; no cut-off is given here.

One data set relates to HT-1080. The experiment in a line: Cytocidal activity against human HT1080 cells assessed as growth inhibition after 48 hrs by SRB assay. The format is functional. The note with it: HT-1080, 48 h. A general note: The SRB assay estimates cell density from bound dye.
The test system of another data set is HT-29. Kind of data set: Cytocidal activity against human HT-29 cells assessed as growth inhibition after 48 hrs by SRB assay. The settings on record: HT-29, 48 h. The format is functional.
A further data set has as its system M21. The experiment in a line: Cytocidal activity against human M21 cells assessed as growth inhibition after 48 hrs by SRB assay. The format is functional. The settings on record: M21, 48 h.
Another data set deals with MCF7. The experiment in a line: Cytocidal activity against human MCF7 cells assessed as growth inhibition after 48 hrs by SRB assay. It is filed as functional. The settings on record: MCF7, 48 h.
Data set [1] concerns the target T1, DNA topoisomerase 1 (Homo sapiens) (UniProt P11387).
T1 sequence (whole entry): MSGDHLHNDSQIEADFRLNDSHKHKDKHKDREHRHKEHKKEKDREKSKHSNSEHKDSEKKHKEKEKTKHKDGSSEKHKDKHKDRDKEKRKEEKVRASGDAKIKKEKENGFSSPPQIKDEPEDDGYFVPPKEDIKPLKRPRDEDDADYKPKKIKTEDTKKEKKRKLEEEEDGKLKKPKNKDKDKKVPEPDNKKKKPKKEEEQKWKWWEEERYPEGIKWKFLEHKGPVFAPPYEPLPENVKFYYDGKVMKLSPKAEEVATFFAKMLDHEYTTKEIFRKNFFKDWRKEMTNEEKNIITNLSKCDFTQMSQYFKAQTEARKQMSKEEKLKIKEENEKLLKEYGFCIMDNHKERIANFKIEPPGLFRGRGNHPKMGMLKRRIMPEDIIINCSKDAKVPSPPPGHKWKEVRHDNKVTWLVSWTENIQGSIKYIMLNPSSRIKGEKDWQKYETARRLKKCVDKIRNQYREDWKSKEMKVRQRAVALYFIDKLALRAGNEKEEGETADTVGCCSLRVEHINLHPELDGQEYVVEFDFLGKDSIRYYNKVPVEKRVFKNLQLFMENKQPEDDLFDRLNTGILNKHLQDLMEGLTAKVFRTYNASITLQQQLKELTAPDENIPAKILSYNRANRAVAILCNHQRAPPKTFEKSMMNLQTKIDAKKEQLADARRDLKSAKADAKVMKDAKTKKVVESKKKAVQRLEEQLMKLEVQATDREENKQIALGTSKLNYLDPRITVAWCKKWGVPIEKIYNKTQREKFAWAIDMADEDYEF
The experiment in a line: Inhibition of recombinant human topoisomerase 1-mediated unwinding of supercoiled plasmid DNA assessed as DNA intercalation at 12.5 to 100 uM by gel electrophoresis. The note with it: TDE = time-dependent effect.

In data set [2] the target is T1, DNA topoisomerase 1 (Homo sapiens). Kind of data set: Inhibition of recombinant human topoisomerase 1-mediated unwinding of supercoiled plasmid DNA assessed as formation of nicked open circular DNA at 12.5 to 100 uM after 2 hrs by gel electrophoresis.
For data set [3] the target is unchanged. Kind of data set: Inhibition of recombinant human topoisomerase 1-mediated unwinding of supercoiled plasmid DNA assessed as DNA intercalation at 50 uM after 2 hrs by gel electrophoresis.
Data set [4] shares this target. The experiment in a line: Inhibition of recombinant human topoisomerase 1-mediated unwinding of supercoiled plasmid DNA assessed as DNA intercalation at 25 uM after 2 hrs by gel electrophoresis.
Data set [5] can be described thus: Dissociation constant, pKa of the compound. The format is physicochemical.
For data set [6], the target named is T1, DNA topoisomerase 1 (Homo sapiens). The experiment in a line: Inhibition of recombinant human topoisomerase 1-mediated unwinding of supercoiled plasmid DNA assessed as DNA intercalation at 100 to 200 uM after 2 hrs by gel electrophoresis.
For data set [7] the target is unchanged. Kind of data set: Inhibition of recombinant human topoisomerase 1-mediated unwinding of supercoiled plasmid DNA assessed as DNA intercalation after 2 hrs by gel electrophoresis.

As a reminder, the GI50 is the concentration giving 50% growth inhibition. `COc1cc(-c2ccc3ccn4ccnc4c3n2)cc(OC)c1OC`: the GI50 in the data set on HT-1080 turned out to be 29.2 µM; in the data set with HT-29, 27.8 µM; in the data set with M21 it was 24.5 µM; in the data set on MCF7 it was 30.7 µM. For the same molecule, in [1], the inhibition result is “tde”. Moreover, in data set [2], the inhibition result is “inactive”. Moreover, the inhibition entry in data set [3] and in [4] was “Active” each time.
Turning to `CCOC(=O)c1c[nH]c2ccn3cc(-c4ccccc4)nc3c2c1=O`, the GI50 with HT-1080 came to 10.4 µM; in the data set with HT-29, 21.6 µM; in the data set with M21 it was 13.4 µM; in the data set with MCF7 it was 20.5 µM.
For the molecule `O=c1c(-c2ccccc2)c[nH]c2c1ccn1ccnc21`, the GI50 with HT-1080, in the data set with HT-29, in the data set with M21 and with MCF7 was over 100 µM throughout.
One may read the pKa as the negative logarithm of the acid dissociation constant. `c1ccc2c(c1)CCc1cc3ccn4ccnc4c3nc1-2`: the pKa in [5] came to 2.43.
Turning to `CCOC(=O)c1c[nH]c2c(ccn3ccnc23)c1=O`, the GI50 in the data set on HT-1080, in the data set with HT-29, with M21 and in the data set on MCF7 was over 100 µM in each case.
For the molecule `CCOC(=O)C1CCc2nc3c(ccn4ccnc34)cc2C1` (centres undefined), the pKa in [5] is 4.08.
The same measure, in the same setting: with `Cc1ccc2ccn3ccnc3c2n1` the figure was 4.23.
Regarding `CCOC(=O)c1c[nH]c2ccn3cc(C)nc3c2c1=O`, the 50% growth inhibitory concentration (GI50) in the data set on HT-1080 was 72.9 µM; in the data set on HT-29, 63.2 µM; in the data set with M21, 88.5 µM; in the data set on MCF7, 98.5 µM.
For the molecule `CCOC(=O)c1c[nH]c2c(ccn3cc(-c4ccccc4)nc23)c1=O`, the GI50 with HT-1080, in the data set with HT-29, with M21 and in the data set on MCF7 was over 100 µM each time.
With `Cc1ccc(-c2ccc3ccn4ccnc4c3n2)cc1`, the GI50 in the data set on HT-1080 stood at 10.7 µM; with HT-29 it was 5.1 µM; in the data set with M21 it was 6.4 µM; with MCF7, 7.6 µM. Further, the inhibition result in [3], in [4] and in data set [6] was “inactive” each time.
Turning to `COc1cc(-c2c[nH]c3ccn4ccnc4c3c2=O)cc(OC)c1OC`, the GI50 turned out to be 92.5 µM in the data set on HT-1080, 62.7 µM with HT-29, 82.7 µM in the data set with M21 and 71.9 µM in the data set on MCF7.
Turning to `CCOC(=O)c1c[nH]c2c(ccn3cc(C(C)C)nc23)c1=O`, the GI50 in the data set with HT-1080, in the data set with HT-29, in the data set with M21 and with MCF7 was over 100 µM throughout.
For `c1ccc2c(c1)CCc1nc3c(ccn4ccnc34)cc1-2`, in data set [5], the pKa was found to be 3.53.
Take `COc1ccc(-c2c[nH]c3c(ccn4ccnc34)c2=O)cc1`: the GI50 in the data set on HT-1080, in the data set on HT-29, in the data set on M21 and in the data set with MCF7 was over 100 µM throughout.
Turning to `COc1cc(NS(C)(=O)=O)ccc1Nc1c2ccccc2nc2ccccc12` [AMSACRINE], the values for the GI50 in the data set with HT-1080 and with MCF7 were 1.6 µM and 5.6 µM, respectively.
Take `COc1ccc(-c2ccc3ccn4ccnc4c3n2)cc1`: the GI50 was 5.2 µM in the data set on HT-1080, 5.1 µM in the data set with HT-29, 5 µM in the data set on M21 and 6.9 µM in the data set with MCF7. Further, the inhibition entry in data set [3] and in [4] was “Active” each time.
Take `CCOC(=O)c1c[nH]c2c(ccn3cc(-c4cccc(OC)c4)nc23)c1=O`: the GI50 in the data set on HT-1080, in the data set with HT-29, with M21 and with MCF7 was over 100 µM each time.
For the molecule `O=c1c(-c2ccccc2)c[nH]c2ccn3ccnc3c12`, the 50% growth inhibitory concentration (GI50) with HT-1080 worked out at 19.7 µM; in the data set on HT-29 it was 34.2 µM; in the data set with M21 it was 40.7 µM; with MCF7 it was 20 µM.
As for `Clc1ccc(-c2ccc3ccn4ccnc4c3n2)cc1`, the GI50 amounted to 6.9 µM with HT-1080, 3.4 µM in the data set on HT-29, 4.7 µM in the data set on M21 and 7.1 µM in the data set on MCF7. For the same molecule, the inhibition entry in data set [3] and in data set [4] was “Active” in each case.
The molecule `c1cn2ccc3cc4c(nc3c2n1)CCCC4` gave a pKa in [5] of 4.59.
In the case of `CCOC(=O)c1c[nH]c2ccn3ccnc3c2c1=O`, the 50% growth inhibitory concentration (GI50) with HT-1080 turned out to be 0.3 µM; in the data set on HT-29, 4.5 µM; with M21, 0.8 µM; in the data set with MCF7 it was 0.3 µM. Further, the inhibition result in data set [3], in data set [4] and in data set [6] was “inactive” throughout.
As for `COc1cc(-c2c[nH]c3c(ccn4ccnc34)c2=O)cc(OC)c1OC`, the GI50 in the data set with HT-1080, in the data set with HT-29, in the data set with M21 and with MCF7 was over 100 µM in each case.
For `CCOC(=O)c1c[nH]c2ccn3cc(C(C)C)nc3c2c1=O`, the GI50 with HT-1080 was 22 µM; in the data set on HT-29 it was 43.7 µM; with M21, 26.9 µM; with MCF7, 37.3 µM.
For `CCOC(=O)c1c[nH]c2c(ccn3cc(C)nc23)c1=O`, the GI50 in the data set with HT-1080, in the data set on HT-29, with M21 and in the data set on MCF7 was over 100 µM throughout.
In data set [5], `Cc1cc2ccn3ccnc3c2nc1C` displayed a pKa of 4.63.
As to `COc1ccc(-c2c[nH]c3ccn4ccnc4c3c2=O)cc1`, the GI50 came out at 1.2 µM in the data set with HT-1080, 8.6 µM in the data set with HT-29, 1.3 µM in the data set with M21 and 1.1 µM in the data set on MCF7. The inhibition entry in data set [3], in data set [4] and in data set [6] was “inactive” throughout.
`O=C1CCCc2nc3c(ccn4ccnc34)cc21`: the pKa in data set [5] is 2.
Same read-out and setting: under `c1ccc2cc3nc4c(ccn5ccnc45)cc3cc2c1` stands 2.43.
In the case of `c1ccc(-c2ccc3ccn4ccnc4c3n2)cc1`, the GI50 in the data set with HT-1080 came out at 54.7 µM. In addition, in data set [1], the inhibition entry was “tde”. In addition, in data set [2], the inhibition result was “inactive”. For the same molecule, the inhibition result in data set [3] and in data set [4] was “Active” each time. In [5], this molecule yielded a pKa of 1.96.
Regarding `CCBr`, the inhibition result in [7] was “Active”.
`CCOC(=O)c1c[nH]c2ccn3cc(-c4cccc(OC)c4)nc3c2c1=O`: the GI50 in the data set with HT-1080 was over 100 µM; with HT-29, 71.1 µM; in the data set with M21, 93.4 µM; in the data set with MCF7 it was 98 µM.

For the origin of these results see ChEMBL document CHEMBL2021761, “Imidazonaphthyridine systems (part 2): Functionalization of the phenyl ring linked to the pyridine pharmacophore and its replacement by a pyridinone ring produces intriguing differences in cytocidal activity” (Eur J Med Chem, 2012).
